Assay results from patent US6472391B2, “Nitrogen-containing heterocyclic compounds” (Millennium Pharmaceuticals, Inc., priority 1996, dated 2002).
Like-named read-outs stand apart in the source and are kept apart here.

Columns and labels:
[1] = system: Vascular smooth muscle cells; assay: Growth inhibition against smooth muscle cells (PDGF-BB stimulated, XTT method); assay type: cell-based; details: Sus scrofa, 72 h, pig aorta cells, PDGF-BB 20 ng/ml, 3 days, read-out: Growth Inhibitory effect against smooth muscle cells IC50
Source text: Test Example 2 Growth Inhibition Against Smooth Muscle Cells
Vascular smooth muscle cells were isolated from a pig aorta by explantation and used for the test. The cells were put into wells of a 96-well plate (8000 cells/well) and cultured in Dulbecco's modified Eagle's medium (DMEM; Nissui Pharmaceutical Co., Ltd.) containing 10% fetal bovine serum (FBS; Hyclone) for 4 days. Then, the cells were further cultured in DMEM containing 0.1% FBS for 3 days, and were synchronized at the cell growth stationary phase.
To each well was added DMEM containing 0.1% FBS and a test sample at a varied concentration, and the cell growth was brought about by PDGF-BB (SIGMA, final concentration: 20 ng/ml). After culturing for 3 days, the cell growth was measured using the cell growth assay kit (Boehringer Mannheim) according to the XTT method [J. Immunol. Methods, 142, 257-265 (1991)], and the cell growth score was calculated by the following equation.
P100: Absorbance by XTT reagent when stimulated by PDGF-BB
P0: Absorbance by XTT reagent when not stimulated by PDGF-BB
M: Absorbance by XTT reagent after addition of a sample when stimulated by PDGF-BB

human β-PDGF receptor = target: T1, human β-PDGF receptor (Homo sapiens, UniProt P09619); assay: Inhibitory effect on phosphorylation of PDGF receptor; assay type: cell-based; details: CHO cells expressing human β-PDGF receptor
T1 construct: expressed in transfected cells; host or cells: Chinese hamster ovary cells (CHO)
Method: Test Example 1 Inhibitory Effect on Phosphorylation of PDGF Receptor
The test was carried out according to the method described in the literature [Dah-Shuhn et al., J. Biol. Chem., 266, 413-418 (1991)], using Chinese hamster ovary cells (CHO) wherein human β-PDGF receptor cDNA was introduced and expressed.

Wistar-Kyoto rats = assay: Mesangial proliferative glomerulonephritis model (anti-Thy-1.1 antibody OX-7); assay type: in vivo, rat; details: per glomerulus, 7th day after OX-7; twice a day for 7 days; normal 1.8 +/− 0.3, solvent-administered 8.7 +/− 0.4
Method: Test Example 5 Activity on a Mesangial Proliferative Glomerulonephritis Model
Anti-rat Thy-1.1 monoclonal antibody OX-7 (Cedarlane) was administered to male Wistar-Kyoto rats (Charles River Japan, 160 g, 6 animals/group) in an amount of 1.0 mg/kg by intravenous administration through the tail vein. A test compound was suspended in a 0.5% solution of methylcellulose and the resulting suspension was administered to each of the rats twice a day for a period of 7 days starting on the day before the administration of OX-7. On the 7th day after the OX-7 administration, when mesangial cell growth and extracellular matrix hypertrophy became prominent, the left kidney of each rat was extirpated, fixed with 20% buffered formalin for 6 hours and wrapped in paraffin, followed by slicing. The obtained pieces were subjected to immune tissue staining using antibody Pd10 (DAKO) against a proliferative cell nuclear antigen. After comparative staining with Methyl Green staining solution using diaminobenzidine as a color developer, the paraffin sections were enclosed. Half of the glomeruli in a kidney piece were observed and the number of the cells in one glomerulus which were positive to the proliferative cell nuclear antigen was calculated. The test for the significance of difference was carried out by the Wilcoxon test.

Lewis rats = assay: Rat adjuvant arthritis model; assay type: in vivo; details: 3 mg/ml suspension, 1 ml/100 g orally once a day; for inhibition at 3000 µg/mL (stock): Rattus norvegicus, po, 120 h
Method: Test Example 4 Evaluation by the use of a Rat Adjuvant Arthritis Model
Killed cells of Mycobacterium butyricum (Difco Laboratories Inc.) were disrupted in agate mortar and suspended in liquid paraffin to the final concentration of 6.6 mg/ml, followed by sterilization with high pressure steam. Then, 100 μl of the suspension was intradermaly injected into the right hind foot pad of each animal of groups of female 8-weeks-old Lewis rats (Charles River Japan) (6 animals/group) to induce adjuvant arthritis. A test compound was suspended in a 0.5% solution of methylcellulose to the final concentration of 3 mg/ml, and from just before the induction of arthritis, the suspension was orally administered in an amount of 1 ml/100 g of the body weight once a day, 5 days a week. To a control group was administered a 0.5% solution of methylcellulose. A normal group was given no adjuvant treatment or test compound administration. The administration of the test compound was continued till the 18th day after the adjuvant treatment. On the 17th day, the number of leukocytes in peripheral blood was counted, and on the 18th day, all the blood was collected, followed by dissection. The change in body weight with the passage of time, the change of edema in hind paw with the passage of time, the weight of spleen and thymus, the number of leukocytes in peripheral blood, the hydroxyproline content of urine, the glucosaminoglycan content of urine, the SH concentration in serum, the concentration of nitrogen monoxide in serum and the concentration of mucoprotein in serum were measured and evaluated. The volume of both hind paws was measured using a rat's hind foot edema measurement device (TK-101, Unicom). The number of leukocytes in peripheral blood was counted using an automatic multichannel blood cell counter (Sysmex K-2000, Toa Iyo Denshi Co., Ltd.). The hydroxyproline content of urine was measured according to the method described in Ikeda, et al., Annual Report of Tokyo Metropolitan Research Laboratories P. H., 36, 277 (1985), and the glucosaminoglycan content was measured according to the method described in Moriyama, et al., Hinyo Kiyo, 40, 565 (1994) and Klompmakers, et al., Analytical Biochemistry, 153, 80 (1986). […] The concentration of mucoprotein was measured using Aspro GP Kit (Otsuka Pharmaceutical Co., Ltd.). The percentage of inhibition for each indication was calculated according to the following equation.
% Inhibition={(Control group−Compound-administered group)/(Control group−Normal group)}×100

T1 sequence (P09619 33-1106): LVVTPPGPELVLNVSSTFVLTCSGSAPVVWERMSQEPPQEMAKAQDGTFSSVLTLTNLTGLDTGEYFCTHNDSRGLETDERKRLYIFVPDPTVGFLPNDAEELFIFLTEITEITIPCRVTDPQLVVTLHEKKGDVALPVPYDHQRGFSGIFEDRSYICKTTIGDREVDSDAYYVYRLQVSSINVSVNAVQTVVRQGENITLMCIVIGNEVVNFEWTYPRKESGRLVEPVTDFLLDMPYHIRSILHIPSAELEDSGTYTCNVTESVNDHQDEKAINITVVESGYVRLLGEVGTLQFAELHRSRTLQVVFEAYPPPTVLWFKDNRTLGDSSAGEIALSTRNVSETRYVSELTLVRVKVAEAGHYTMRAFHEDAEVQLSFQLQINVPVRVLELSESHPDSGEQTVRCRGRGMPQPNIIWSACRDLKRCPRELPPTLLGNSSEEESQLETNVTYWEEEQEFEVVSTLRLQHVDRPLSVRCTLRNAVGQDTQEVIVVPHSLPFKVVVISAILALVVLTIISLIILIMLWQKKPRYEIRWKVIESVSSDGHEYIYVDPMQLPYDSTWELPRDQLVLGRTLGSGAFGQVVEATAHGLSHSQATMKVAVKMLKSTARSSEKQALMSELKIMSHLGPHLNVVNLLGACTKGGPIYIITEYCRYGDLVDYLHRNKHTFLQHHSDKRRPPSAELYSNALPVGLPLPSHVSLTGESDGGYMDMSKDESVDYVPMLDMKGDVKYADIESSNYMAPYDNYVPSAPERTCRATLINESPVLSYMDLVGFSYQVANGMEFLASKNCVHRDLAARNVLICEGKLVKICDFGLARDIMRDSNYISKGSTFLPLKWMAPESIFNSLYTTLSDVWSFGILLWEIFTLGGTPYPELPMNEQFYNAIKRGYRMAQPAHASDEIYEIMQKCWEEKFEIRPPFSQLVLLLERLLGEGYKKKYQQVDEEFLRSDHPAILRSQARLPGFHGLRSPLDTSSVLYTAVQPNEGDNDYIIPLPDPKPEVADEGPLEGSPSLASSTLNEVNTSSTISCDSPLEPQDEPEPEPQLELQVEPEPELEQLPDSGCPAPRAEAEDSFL

Row | Compound | melting point | IC50 [1] | IC50 (human β-PDGF receptor) | other results
1 | COc1cc2ncnc(N3CCN(C(=O)Nc4ccc(C(C)C)cc4)CC3)c2cc1OC [Compound 19, 4-(6,7-Dimethoxy-4-quinazolinyl)-N-(4-isopropylphenyl)-1-piperazinecarboxamide] | 252 to 254 °C | 180 nM |  | 
2 | COc1cc2ncnc(N3CCN(C(=O)Nc4ccc(Br)cc4)CC3)c2cc1OC [Compound 45, N-(4-bromophenyl)-4-(6,7-dimethoxy-4-quinazolinyl)-1-piperazinecarboxamide] | 223 to 228 °C | 80 nM | 160 nM | 
3 | COc1cc2ncnc(N3CCN(C(=O)Nc4ccc(Oc5ccccc5)cc4)CC3)c2cc1OC [Compound 60, 4-(6,7-Dimethoxy-4-quinazolinyl)-N-(4-phenoxyphenyl)-1-piperazinecarboxamide] |  | 30 nM |  | 
4 | COc1cc2ncnc(N3CCN(C(=O)Nc4ccc([N+](=O)[O-])cc4)CC3)c2cc1OC [Compound 77, 4-(6,7-dimethoxy-4-quinazolinyl)-N-(4-nitrophenyl)-1-piperazinecarboxamide] | 272 to 274 °C | 100 nM |  | 
5 | COc1cc2ncnc(N3CCN(C(=S)Nc4ccccc4[N+](=O)[O-])CC3)c2cc1OC [Compound 78, 4-(6,7-Dimethoxy-4-quinazolinyl)-N-(2-nitrophenyl)-1-piperazinethiocarboxamide] | 177 to 178 °C | 740 nM | 580 nM | 
6 | COc1cc2ncnc(N3CCN(C(=S)Nc4cccc([N+](=O)[O-])c4)CC3)c2cc1OC [Compound 79, 4-(6,7-Dimethoxy-4-quinazolinyl)-N-(3-nitrophenyl)-1-piperazinethiocarboxamide] | 140 to 143 °C | 140 nM | 120 nM | 
7 | COc1cc2ncnc(N3CCN(C(=S)NCc4ccc5c(c4)OCO5)CC3)c2cc1OC [Compound 208, 4-(6,7-dimethoxy-4-quinazolinyl)-N-(3,4-methylenedioxybenzyl)-1-piperazinethiocarboxamide] | 113 to 114 °C |  |  | Number of cells which are positive to intranuclear antigen of proliferative cells (Wistar-Kyoto rats): 6.1 +/− 0.9
8 | COc1cc2ncnc(N3CCN(C(=O)Nc4ccc(C#N)cc4)CC3)c2cc1OC [Compound 239, N-(4-Cyanophenyl)-4-(6,7-dimethoxy-4-quinazolinyl)-1-piperazinecarboxamide] | 274 to 275 °C |  |  | Volume of left hind foot (Lewis rats; 5 days a week, normal 1.12 ± 0.03, sensitized control 1.84 ± 0.18): 1.52 ± 0.16 mL; Weight of spleen (Lewis rats; normal 21.4 ± 0.3, sensitized control 53.8 ± 3.8, P < 0.05 vs control): 40.4 ± 2.5 mg/10 g of body weight; Body weight (Lewis rats; normal 191 ± 5, sensitized control 146 ± 4, P < 0.05 vs control): 159 ± 2 g; inhibition at 3000 µg/mL (stock) (Lewis rats; 5 days a week, read-out: Inhibition rate (NO concentration)): 42%; inhibition at 3000 µg/mL (stock) (Lewis rats; 5 days a week, read-out: Inhibition rate (body weight)): 29%; inhibition at 3000 µg/mL (stock) (Lewis rats; 5 days a week, read-out: Inhibition rate (volume of left hind foot)): 44%; inhibition at 3000 µg/mL (stock) (Lewis rats; 5 days a week, read-out: Inhibition rate (weight of spleen)): 41%; NO concentration (Lewis rats; serum, normal 11.1 ± 1.0, sensitized control 56.6 ± 7.0): 37.6 ± 4.0 µM
9 | O=C(Nc1ccc(Oc2ccccc2)cc1)N1CCN(c2ncnc3cc(Cl)c([N+](=O)[O-])cc23)CC1 [Compound 357, 4-(7-Chloro-6-nitro-4-quinazolinyl)-N-(4-phenoxyphenyl)-1-piperazinecarboxamide] | 190 to 191 °C |  | 190 nM | 
10 | S=C(NCc1cccnc1)N1CCN(c2ncnc3cc4ccccc4cc23)CC1 [Compound 366, 4-(4-Benzo[g]quinazolinyl)-N-(3-picolyl)-1-piperazinethiocarboxamide] | 107 to 110 °C |  | 1470 nM | 
11 | COc1cc2ncnc(N3C[C@@H](C)N(C(=S)NCc4ccccc4)[C@@H](C)C3)c2cc1OC [Compound 433, N-Benzyl-4-(6,7-dimethoxy-4-quinazolinyl)-(cis-2,6-dimethyl)-1-piperazinethiocarboxamide] | 165 to 166 °C |  | 380 nM | 
